Tested on: WBP2-Y192-231E mutant-expressing MCF7
Test: Cell proliferation (MTS / cell numbers) of WBP2-Y192-231E mutant-expressing MCF7
Type: cell-based, human
Experimental: A: Whole cell lysates from vector, WBP2-WT, WBP2-Y192-231E mutant and WBP2-Y192-231F mutant expressing MCF7 or Y192-231E mutant expressing MCF7 with WBP2 knockdown were used for IB analysis with antibodies indicated. B: Vector, WBP2-WT, WBP2-Y192-231E mutant or WBP2-Y192-231F mutant-expressing MCF7 were co-transfected with TOPFlash (top panel) or ERE-Luciferase (bottom panel) reporter construct. For cells co-transfected ERE-luciferase, they were either left alone or stimulated with 50 ng/ml Wnt3a ligand for 16 hrs. TCF/ERα luciferase activities in various conditions were then assayed. **P<0.01, ***P<0.001, Student's t-test (2-tailed). C: Vector or WBP2-Y192-231E mutant-expressing MCF7 were treated with indicated concentrations of Tamoxifen(Tam) and/or FH535. Cell numbers were measured. D: Whole cell lysates from WBP2-Y192-231E mutant-expressing MCF7 treated with 2 μM Tam and/or 15 μM FH5353 were harvested at day 2-4 post-treatment and used for IB analysis with antibodies indicated.
Effect of knockdown of E2F1 and E2F3 on MCF7 cells overexpressing WBP2-Y192-231E. A. MCF7 cells expressing WBP2-Y192-231E were transfected with indicated siRNAs and knockdown efficiency was confirmed using western blotting. B. Cells were co-transfected with indicated siRNAs and E2F reporter plasmid and harvested for luciferase assay after 48 hours. Luciferase readings were normalized against constitutive TK promoter renilla luciferase readings. C. Cells were transfected with indicated siRNAs and BrdU incorporation assay was performed. Percentages of BrdU positive cells relative to control siRNA treated cells were plotted as bar charts. D. Cells were transfected with indicated siRNAs. MTS assay was performed on day 3. Percentages of cell proliferation relative to control siRNA treated cells were plotted as bar charts.
Whole cell lysates from vector, WBP2-WT, WBP2-Y192-231E mutant and WBP2-Y192-231F mutant expressing MCF7 (A) or Y192-231E mutant expressing MCF7 with WBP2 knockdown (B) were used for IB analysis with antibodies indicated. Their expression levels were quantified in three independent experiments and the averages were presented relative to actin. Representative blots (order in lanes from left to right: vector, WBP2, Y192-231E, Y192F) were presented as insets to the bar graphs. **P<0.01, ***P<0.001, Student's t-test (2-tailed) relative to vector. Vector, WBP2-WT, WBP2-Y192-231E mutant or WBP2-Y192-231F mutant-expressing MCF7 were cotransfected with TOPFlash(C) or ERE-Luciferase(D) reporter construct. For cells co-transfected ERE luciferase, they were either left alone or stimulated with 50 ng/ml Wnt3a ligand for 16 hrs. TCF(C)/ER[…](D) luciferase activities in various conditions were then assayed and analyzed in relative to untreated vector control. **P<0.01, ***P<0.001, Student's t-test (2-tailed). E: Vector or WBP2-Y192-231E mutant-expressing MCF7 were treated with indicated concentrations of 2 µM tamoxifen (Tam) and/or 15 µM FH535 for 4 days. Cell numbers were measured daily and compared in relative to vehicle treated vector-expressing cells on Day 0. F: Vector or WBP2-Y192-231E mutant-expressing MCF7 were treated with indicated concentrations (0-50 µM) of FH535 for 2 days. Cell numbers were measured and compared in relative to vehicle-treated cells. Their […] were analyzed statistically with SPSS 13.0. G: Whole cell lysates from WBP2-Y192-231E mutant-expressing MCF7 treated with 2 μM Tam and/or 15 μM FH5353 were harvested at day 2-4 post-treatment and used for IB analysis with antibodies indicated. H: Vector or WBP2-Y192-231E mutant-expressing MCF7 were treated with indicated concentrations of 100 nM fulvestrant and/or 15 µM FH535 for 4 days. Cell numbers were measured on day 2 and day 4 and compared in relative to vehicle-treated control at each day (Top Panel). These treated cells were harvested for IB analysis with antibodies indicated (Bottom Panel). […]

Question: `Cc1cc([N+](=O)[O-])ccc1NS(=O)(=O)c1cc(Cl)ccc1Cl` [FH535] was tested. Which “blocking of phospho-WBP2-mediated cancer cell growth compared with tamoxifen and fulvestrant” value did it give?
Answer: The value was “more pronouncedly”.

Question: And the “sensitivity of Y192-231E-expressing MCF7 to FH535-mediated growth inhibition compared with vector-expressing MCF7” value (0-50 μM FH535 for 2 days)?
Answer: Its value is “more sensitive”.

Question: What about the “inhibition of growth / reduction of proliferation” value (MCF7 cells expressing Y192-231E mutant, day 4, 100 nM fulvestrant or 15 μM FH535) of the same compound?
Answer: The value was ~65%.

Question: And the “growth inhibition, dose dependence” value (Y192-231E stable transfectant, 0-50 μM FH535 for 2 days)?
Answer: The value was “dose dependent growth inhibition”.

Question: And the growth rate (Y192-231E-expressing MCF7, FH535 alone (15 μM), to close to vector-expressing MCF7 at day 3)?
Answer: Its growth rate is “significantly reduced”.

Source: patent publication US9429582B2, “Tyrosine-phosphorylated WBP2, a novel cancer target and biomarker” (National University of Singapore, priority 2010, dated 2016)
